# Patent US20260041706A1, “MUCUS MEMBRANE FORMULATIONS AND USES THEREOF” (priority 2022, published 2026)
# Values joined by “and” are separate entries in the source; they are usually repeats but may differ in a detail not shown here. Identical values can stand only once. Like-named read-outs stand apart in the source and are kept apart here.
# Assays:
# [1] = system: human nasal epithelial cell (RPMI-2650)-based monolayer
# [2] = system: Escherichia coli (E. coli); assay: In vitro neutralization assay with bacteria (CFU), E. coli; type: cell-based; conditions: incubation time of 30 min
# Protocol: (§1) Neutralization was determined by measuring the bactericidal activity. Each agent was individually incubated with either E. coli or K. pneumoniae for 30 or 60 min, followed by 1-minute centrifugation, and then evaluating the bacterial load in the supernatant using a colony-forming assay.
# (§2) An overnight culture of bacteria was prepared in 5 mL tryptic soy broth (TSB, Sigma Aldrich) media. On the day of the experiment, bacteria suspension was adjusted to obtain an OD600 nm=0.2, which corresponds to 10^8 CFU/mL. […] After incubation, the sample/bacteria mixture was 10-fold serially diluted in 1×PBS, and 10 mL of each dilution was plated onto pre-poured LB (Luria Broth, HiMedia Laboratories Pvt Ltd) agar plates followed by an incubation of 16-18 h at 37° C., 5% CO2. The plates were then counted for CFUs.
# [3] = system: HKx31 Influenza A virus (H3N2); assay: In vitro neutralization assay with Influenza A (plaque assay in MDCK cells); type: cell-based; conditions: 10 or 60 min incubation; agent evaluated individually
# [4] = for fluorescence intensity (droplet capture) relative to mucus or biopolymer mixture without surfactant: surfactant 0.05% w/V in gellan (0.2% w/v) and pectin (0.75% w/v) mixture
# SARS-CoV-2 mNG = assay: In vitro neutralization assay with SARS-CoV-2 (focus-forming assay in Vero E6 cells); type: cell-based
# Klebsiella pneumoniae = assay: In vitro neutralization assay with bacteria (CFU), K. pneumoniae; type: cell-based; conditions: incubation time of 30 min
# Protocol: as §1, §2
# [5] = mouse, in vivo
# Description: (§3) To test our hypothesis, we compared nasal residence time of DiR-loaded mixture of gellan and pectin without or with surfactants.
# (§4) In vivo biodistribution and nasal residence. Nasal residence time of the formulation was determine in mice. […] Mice were euthanized at different time points and nasal cavity was harvested and imaged using IVIS (Bruker's In-Vivo Xtreme optical and x-ray in vivo imaging system) at an excitation and emission wavelength of 680/700 nm. Vital organs such as lung, liver, spleen, kidney, and heart, were also imaged at 2 and 24 h time points. To determine the mechanism of long residence time, animals were intranasally instilled with DiR-mixed gellan (0.02% w/v) and pectin (0.75% w/v) mixture without or with BKC and tween-80. After 8 h, animals were euthanized to harvest and image the nasal cavity using Perkin Elmer IVIS Lumina II and the total flux was expressed in (p/sec/m^2/sr).
# RPMI 2650 cells = conditions: 0.5% w/v; 24 or 48 h incubation
# [6] = In vivo biodistribution and nasal residence (DiR fluorescence, IVIS); conditions: 8 h post-nasal administration, DiR-loaded
# Description: as §3, §4
Substance,"change in TEER (in words) ([1]; Triton-X 0.1% w/v, negative control)",reduction in colony-forming units (CFU) of E. coli [2] [log fold],reduction in IAV viral titer in host cells in comparison to PBS [3] [log fold],capture of respiratory droplets (in words) ([4]; BKC at 0.01% w/v),fluorescence intensity (droplet capture) relative to mucus or biopolymer mixture without surfactant [4] [fold],"surfactant concentration above which fluorescence intensity (droplet capture) increased significantly ([4]; surfactant combined with gellan/pectin mixture, vs mucus or only biopolymer mixture)",minimum concentration required to achieve >4-log fold (>99.99%) reduction in SARS-CoV-2 viral load (SARS-CoV-2 mNG) [% w/v],"reduction in SARS-CoV-2 viral load in host cells (SARS-CoV-2 mNG; 10 or 60 min incubation, agent evaluated individually)","neutralization efficiency of BKC against SARS-CoV-2 in presence of gellan or pectin (SARS-CoV-2 mNG; BKC 0.01% w/v, gellan 0.2% w/v or pectin 0.75% w/v, 10 min)",reduction in colony-forming units (CFU) of Klebsiella pneumoniae (Klebsiella pneumoniae) [log fold],nasal residence of gellan and pectin mixture on addition of surfactant [5],transient dip in TEER immediately after addition ([1]; irrespective of the concentrations evaluated),time for TEER to reverse to original value after replacing with fresh medium ([1]; medium replaced at 4 h),metabolic activity of RPMI-2650 cells (RPMI 2650 cells),nasal residence of gellan and pectin mixture on addition of surfactant [6]
"Triton X-100 [Triton-X, reference compound]",permanent change in the TEER,–,–,–,–,–,–,–,–,–,–,–,–,–,–
benzalkonium chloride [BKC],–,4,1,didn't increase the capture of respiratory droplets,4,higher than 0.01 % w/v,0.01,5 log fold and > 99.99%,not impacted,7,significantly enhanced the nasal residence,–,–,–,–
polyoxyethylene 20 sorbitan monooleate [Tween-80],–,–,1,–,4,–,–,–,–,–,–,less than 15%,less than 1 h,significant reduction in the metabolic activity,significantly enhanced the nasal residence
